The values below come from US20250340574A1, “MODULATORS OF CYSTIC FIBROSIS TRANSMEMBRANE CONDUCTANCE REGULATOR” (Vertex Pharmaceuticals Incorporated, priority 2022, published 2025).

The target in experiment [1] is T1, CFTR (F508del/MF-HBE cells) (Homo sapiens, UniProt P13569, DEL508-508).
T1 construct: human bronchial epithelial (HBE) cells derived from CF subjects heterozygous for F508del and a minimal function CFTR mutation (F508del/MF-HBE); endogenous in cells; host or cells: Primary human bronchial epithelial cells from CF subjects (F508del/MF genotype), differentiated at an air-liquid interface
Description: Ussing chamber assay of CFTR-mediated short-circuit currents, Assay C (0.026 μM to 25 μM, 6 concentrations). Format: cell-based. The settings on record: with 33 nM potentiator and 18 μM Tezacaftor, 20% human serum; for Emax: read-out: C Max activity (%). Summed up:
(§1)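 F508del/MF-HBE cells were preincubated 18–24 h at 37 °C in 20% human serum with corrector plus 18 μM tezacaftor and either 33 nM (concentration series) or 44 nM (1 μM single point) of the aminotrifluoromethyl triazatricyclic potentiator. Ussing chamber, Vhold=0 mV, 37 °C; forskolin 20 μM stimulation, CFTR ISC taken as inhibitor-cocktail-sensitive current.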

Experiment [2] concerns the target T1, CFTR (F508del/MF-HBE cells). Description: Ussing chamber assay of CFTR-mediated short-circuit currents, Assay D (single concentration of 1 μM). Type of experiment: cell-based. The settings on record: with 44 nM potentiator and 18 μM Tezacaftor, 20% human serum; for D activity at 1 μM (%): 18-24 hours. In outline: as §1

Like-named read-outs stand apart in the source and are kept apart here. Where only a bound is given, the exact number is not on record here.

T1 sequence (P13569 with tags, fused parts or gaps DEL508-508): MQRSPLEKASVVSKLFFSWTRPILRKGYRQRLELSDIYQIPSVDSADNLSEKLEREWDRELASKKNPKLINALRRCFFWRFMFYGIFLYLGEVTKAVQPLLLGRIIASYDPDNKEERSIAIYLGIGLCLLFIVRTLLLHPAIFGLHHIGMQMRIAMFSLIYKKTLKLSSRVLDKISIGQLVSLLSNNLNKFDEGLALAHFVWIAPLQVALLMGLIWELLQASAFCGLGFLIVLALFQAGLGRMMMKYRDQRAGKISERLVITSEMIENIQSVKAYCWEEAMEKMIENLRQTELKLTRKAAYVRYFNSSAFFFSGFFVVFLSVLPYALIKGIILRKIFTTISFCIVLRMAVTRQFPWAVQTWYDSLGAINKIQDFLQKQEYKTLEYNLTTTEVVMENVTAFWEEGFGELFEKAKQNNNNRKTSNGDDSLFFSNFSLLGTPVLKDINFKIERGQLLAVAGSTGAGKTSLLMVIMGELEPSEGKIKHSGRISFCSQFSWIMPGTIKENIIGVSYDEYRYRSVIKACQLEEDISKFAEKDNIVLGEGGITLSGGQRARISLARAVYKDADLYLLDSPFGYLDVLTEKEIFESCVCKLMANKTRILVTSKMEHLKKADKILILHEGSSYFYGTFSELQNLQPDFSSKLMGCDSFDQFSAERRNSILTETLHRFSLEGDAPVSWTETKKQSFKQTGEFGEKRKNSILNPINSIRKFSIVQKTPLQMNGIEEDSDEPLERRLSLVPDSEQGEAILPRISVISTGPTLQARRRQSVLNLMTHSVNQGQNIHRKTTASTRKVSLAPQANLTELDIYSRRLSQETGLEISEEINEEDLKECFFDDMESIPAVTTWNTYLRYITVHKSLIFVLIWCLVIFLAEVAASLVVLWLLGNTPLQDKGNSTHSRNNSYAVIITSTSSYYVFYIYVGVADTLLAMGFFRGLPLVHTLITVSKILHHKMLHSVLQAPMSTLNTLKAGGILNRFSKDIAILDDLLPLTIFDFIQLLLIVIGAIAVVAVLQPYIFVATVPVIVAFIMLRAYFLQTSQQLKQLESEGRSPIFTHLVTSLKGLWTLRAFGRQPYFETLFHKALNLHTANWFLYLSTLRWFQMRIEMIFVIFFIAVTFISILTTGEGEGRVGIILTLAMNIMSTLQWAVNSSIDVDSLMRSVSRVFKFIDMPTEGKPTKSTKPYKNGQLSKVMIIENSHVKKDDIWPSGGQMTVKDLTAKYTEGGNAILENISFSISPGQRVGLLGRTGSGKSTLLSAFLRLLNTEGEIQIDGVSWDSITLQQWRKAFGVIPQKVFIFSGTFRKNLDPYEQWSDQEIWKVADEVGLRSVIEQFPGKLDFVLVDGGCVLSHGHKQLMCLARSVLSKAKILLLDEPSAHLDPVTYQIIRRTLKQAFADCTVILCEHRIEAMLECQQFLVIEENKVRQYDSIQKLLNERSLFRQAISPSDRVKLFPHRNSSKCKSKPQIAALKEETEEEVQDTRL

As a reminder, the EC50 is the concentration at which the effect is half-maximal. `Cc1cccc(CC(C)C)c1-c1nc2nc(c1C)OC[C@@H](CC1(C)CC1)N(Cc1cnc3oc(C(C)C)cc3n1)C(=O)c1cccc(c1)S(=O)(=O)N2` (atropisomer, axis not shown) [IV-46]: in experiment [1], the EC50 is < 1000 nM and the Emax is > 60%. For the same compound, in experiment [2], the “D act. at 1 μM (%)” value is “+++ (+++ is >60%)”.
On to `Cc1cccc(C)c1-c1nc2nc(c1C)OC[C@@H](C[C@H]1CCCCO1)N(Cc1cnc3cc(C(C)C)n(C)c3n1)C(=O)c1cccc(c1)S(=O)(=O)N2` [Compound I-194], for which, in experiment [1] (18-24 hours), the Emax is > 60%. The half-maximal effective concentration (EC50) in experiment [1] was < 1000 nM. The “D activity at 1 μM (%)” value in experiment [2] is recorded as “+++ (+++ is >60%)”.
Consider `Cc1cccc(C)c1-c1cc2nc(n1)NS(=O)(=O)c1cccc(c1)C(=O)N(Cc1cnc3oc(C(C)(C)CO)cc3n1)[C@H](CC13CC(C1)C3)CO2` [Compound I-113, (11R)-11-(1-bicyclo[1.1.1]pentanylmethyl)-6-(2,6-dimethylphenyl)-12-[[6-(2-hydroxy-1,1-dimethyl-ethyl)furo[2,3-b]pyrazin-2-yl]methyl]-2,2-dioxo-9-oxa-2λ^6-thia-3,5,12,19-tetrazatricyclo[12.3.1.14,8]nonadeca-1(18),4(19),5,7,14,16-hexaen-13-one], for which the Emax in experiment [1] (18-24 hours) is > 60%. The EC50 in experiment [1] was in the range of 3000 to 30000 nM. In addition, the “D activity at 1 μM (%)” value in experiment [2] was “+++ (+++ is >60%)”.
As to `Cc1cccc(C)c1-c1cc2nc(n1)NS(=O)(=O)c1cccc(c1)C(=O)N(Cc1cnc3cc(C(C)C)n(C)c3n1)[C@H](C[C@@H]1CCCCO1)CO2` [Compound I-15, (11R)-6-(2,6-dimethylphenyl)-12-[(6-isopropyl-5-methyl-pyrrolo[2,3-b]pyrazin-3-yl)methyl]-2,2-dioxo-11-[[(2S)-tetrahydropyran-2-yl]methyl]-9-oxa-2λ^6-thia-3,5,12,19-tetrazatricyclo[12.3.1.14,8]nonadeca-1(18),4(19),5,7,14,16-hexaen-13-one], the “D activity at 1 μM (%)” value in experiment [2] is “+++ (+++ is >60%)”.
On the same count and under the same terms, under `Cc1cccc(C)c1-c1cc2nc(n1)NS(=O)(=O)c1cccc(c1)C(=O)N(Cc1cnc3oc(C4CC4)cc3n1)[C@@H](CC1CC(C)(C)C1)CO2` (single isomer, unassigned) [Compound I-165, 12-[(6-Cyclopropylfuro[2,3-b]pyrazin-2-yl)methyl]-11-[(3,3-dimethylcyclobutyl)methyl]-6-(2,6-dimethylphenyl)-2,2-dioxo-9-oxa-2λ^6-thia-3,5,12,19-tetrazatricyclo[12.3.1.14,8]nonadeca-1(18),4(19),5,7,14,16-hexaen-13-one] stands “+++ (+++ is >60%)”; under `Cc1cccc(C)c1-c1nc2nc(c1C)OC[C@@H](CC(C)(C)C)N(Cc1cnc3cc(C4(C)CC4)n(C)c3n1)C(=O)c1cccc(c1)S(=O)(=O)N2` [Compound I-229], “+++ (+++ is >60%)”.
With `COCc1cc2nc(CN3C(=O)c4cccc(c4)S(=O)(=O)Nc4nc(cc(-c5c(C)cccc5C)n4)OC[C@H]3CC3(C)CC3)cnc2o1` [IV-16, (11R)-6-(2,6-dimethylphenyl)-12-[[6-(methoxymethyl)furo[2,3-b]pyrazin-2-yl]methyl]-11-[(1-methylcyclopropyl)methyl]-2,2-dioxo-9-oxa-2λ^6-thia-3,5,12,19-tetrazatricyclo[12.3.1.14,8]nonadeca-1(18),4(19),5,7,14,16-hexaen-13-one], the “D act. at 1 μM (%)” value in experiment [2] is on record as “+++ (+++ is >60%)”.
Consider `Cc1cccc(OC(C)C)c1-c1nc2nc(c1C)OC[C@@H](CC(C)(C)C)N(Cc1cnc3cc(C(C)(C)C)n(C)c3n1)C(=O)c1cccc(c1)S(=O)(=O)N2` (atropisomer, axis not shown) [Compound I-261], for which, in experiment [2], the “D activity at 1 μM (%)” value is “+++ (+++ is >60%)”.
`Cc1cccc(C)c1-c1cc2nc(n1)NS(=O)(=O)c1cccc(c1)C(=O)N(Cc1cnc3oc([C@](C)(O)CO)cc3n1)[C@H](CC1(C)CC1)CO2` (single isomer, unassigned) [IV-14]: the “D act. at 1 μM (%)” value in experiment [2] is reported as “+++ (+++ is >60%)”.
In the case of `Cc1cccc(C)c1-c1cc2nc(n1)NS(=O)(=O)c1cccc(c1)C(=O)N(Cc1cnc3cn(C(C)C)nc3n1)[C@@H](CCC1(C)CC1)CO2` [Compound I-129], in experiment [2], the “D activity at 1 μM (%)” value is “+++ (+++ is >60%)”.
Take `Cc1cccc(C)c1-c1cc2nc(n1)NS(=O)(=O)c1cccc(c1)C(=O)N(Cc1nc3cc(C(C)C)oc3cc1F)[C@H](COC(C)C)CO2` [Compound I-77]: in experiment [2], the “D activity at 1 μM (%)” value is “+++ (+++ is >60%)”.
Still for that read-out and setting: for `Cc1cccc(C)c1-c1cc2nc(n1)NS(=O)(=O)c1cccc(c1)C(=O)N(Cc1nc3cc(C4(C)CC4)oc3cc1F)[C@H](CC13CC(C1)C3)CO2` [Compound I-233] the value was “+++ (+++ is >60%)”.
As to `Cc1cccc(C)c1-c1cc2nc(n1)NS(=O)(=O)c1cccc(c1)C(=O)N(Cc1cnc3oc(C4CC4)cc3n1)[C@@H](CC1CC(C)(C)C1)CO2` (single isomer, unassigned) [Compound I-166, 12-[(6-cyclopropylfuro[2,3-b]pyrazin-2-yl)methyl]-11-[(3,3-dimethylcyclobutyl)methyl]-6-(2,6-dimethylphenyl)-2,2-dioxo-9-oxa-2λ^6-thia-3,5,12,19-tetrazatricyclo[12.3.1.14,8]nonadeca-1(18),4(19),5,7,14,16-hexaen-13-one], in experiment [2], the “D activity at 1 μM (%)” value is “++ (++ is 30-60%)”.
Consider `Cc1cccc(C)c1-c1cc2nc(n1)NS(=O)(=O)c1cccc(c1)C(=O)N(Cc1cnc3oc(C(C)(C)C)cc3n1)[C@H](CC1CCC1)CO2` [IV-7], for which the “D act. at 1 μM (%)” value in experiment [2] is “+++ (+++ is >60%)”.
With `Cc1cccc(C)c1-c1cc2nc(n1)NS(=O)(=O)c1cccc(c1)C(=O)N(Cc1cnc3oc(C(C)C)cc3n1)[C@H](COC1CC1)CO2` [Compound I-109], in experiment [2], the “D activity at 1 μM (%)” value was “+++ (+++ is >60%)”.
Same read-out and setting: under `Cc1cccc(CC2CCCCC2)c1-c1nc2nc(c1C)OC[C@@H](CC(C)(C)C)N(Cc1cnc3oc(C4CC4)cc3n1)C(=O)c1cccc(c1)S(=O)(=O)N2` [Compound I-224] stands “+++ (+++ is >60%)”; under `Cc1cccc(C)c1-c1cc2nc(n1)NS(=O)(=O)c1cccc(c1)C(=O)N(Cc1cnc3oc(C)c(C4CC4)c3n1)[C@H](CC(C)(C)C)CO2` [Compound I-28], “+++ (+++ is >60%)”.
On the same count and under the same terms, under `Cc1cccc(C)c1-c1cc2nc(n1)NS(=O)(=O)c1cccc(c1)C(=O)N(Cc1cnc3nn(C(C)C)cc3n1)[C@H](CC(C)(C)C)CO2` [Compound I-169, (11R)-6-(2,6-Dimethylphenyl)-11-(2,2-dimethylpropyl)-12-[(2-isopropylpyrazolo[3,4-b]pyrazin-5-yl)methyl]-2,2-dioxo-9-oxa-2λ^6-thia-3,5,12,19-tetrazatricyclo[12.3.1.14,8]nonadeca-1(18),4(19),5,7,14,16-hexaen-13-one] stands “+++ (+++ is >60%)”; under `Cc1cccc(C(C)C)c1-c1nc2nc(c1C)OC[C@@H](CC(C)(C)C)N(Cc1cnc3cc(C(C)C)n(C)c3n1)C(=O)c1cccc(c1)S(=O)(=O)N2` (atropisomer, axis not shown) [Compound I-180], “+++ (+++ is >60%)”.
On the same count and under the same terms, for `COC1(C[C@@H]2COc3cc(-c4c(C)cccc4C)nc(n3)NS(=O)(=O)c3cccc(c3)C(=O)N2Cc2cnc3oc(C(C)C)cc3n2)CCC1` [Compound I-76] the value was “+++ (+++ is >60%)”.
`Cc1cccc(C)c1-c1cc2nc(n1)NS(=O)(=O)c1cccc(c1)C(=O)N(Cc1cnc3cc(C(C)C)n(C)c3n1)C(CC(C)(C)C1CC1)CO2` (centres unmarked) [Compound I-108]: in experiment [2], the “D activity at 1 μM (%)” value is reported as “+++ (+++ is >60%)”.
Take `Cc1cccc(C)c1-c1cc2nc(n1)NS(=O)(=O)c1cccc(c1)C(=O)N(Cc1cnc3cn(C(C)C)nc3n1)[C@H](COC(C)C)CO2` [Compound I-132]: in experiment [2], the “D activity at 1 μM (%)” value is on record as “+++ (+++ is >60%)”.
Still for that read-out and setting: under `Cc1cccc(C)c1-c1cc2nc(n1)NS(=O)(=O)c1cccc(c1)C(=O)N(Cc1cnc3cc(C(C)C)n(CCO)c3n1)[C@H](CC(C)(C)C)CO2` [Compound I-160, (11R)-6-(2,6-Dimethylphenyl)-11-(2,2-dimethylpropyl)-12-[[5-(2-hydroxyethyl)-6-isopropyl-pyrrolo[2,3-b]pyrazin-3-yl]methyl]-2,2-dioxo-9-oxa-2λ^6-thia-3,5,12,19-tetrazatricyclo[12.3.1.14,8]nonadeca-1(18),4(19),5,7,14,16-hexaen-13-one] stands “+++ (+++ is >60%)”; under `Cc1cccc(C(C)C)c1-c1nc2nc(c1C)OC[C@@H](CC(C)(C)C)N(Cc1cnc3oc(C(C)C)cc3n1)C(=O)c1cccc(c1)S(=O)(=O)N2` (atropisomer, axis not shown) [Compound I-135], “+++ (+++ is >60%)”.
On to `CC(C)=Cc1cc2nc(CN3C(=O)c4cccc(c4)S(=O)(=O)Nc4nc(cc(-c5c(C)cccc5C)n4)OC[C@H]3CC3(C)CC3)cnc2o1` [IV-17, (11R)-6-(2,6-dimethylphenyl)-11-[(1-methylcyclopropyl)methyl]-12-[[6-(2-methylprop-1-enyl)furo[2,3-b]pyrazin-2-yl]methyl]-2,2-dioxo-9-oxa-2λ^6-thia-3,5,12,19-tetrazatricyclo[12.3.1.14,8]nonadeca-1(18),4(19),5,7,14,16-hexaen-13-one], for which the “D act. at 1 μM (%)” value in experiment [2] was “+++ (+++ is >60%)”.
Take `Cc1cccc(C)c1-c1nc2nc(c1C)OC[C@@H](COC(C)C)N(Cc1cnc3oc(C(C)(C)C)cc3n1)C(=O)c1cccc(c1)S(=O)(=O)N2` [Compound I-216]: the “D activity at 1 μM (%)” value in experiment [2] is given as “+++ (+++ is >60%)”.
